According to paper PMC5260423 (Journal of Veterinary Internal Medicine, 2016):

Tests used:
VEGF = format: cell-based, cat
[1] = test system: FOSCC cell lines (SCCF1, SCCF2, SCCF3); format: cell-based, cat; settings: MTT assay
Bcl11b = format: cell-based, cat
[2] = test system: canine glioblastoma J3T cells; experiment: cells; format: cell-based, dog; settings: Canis lupus familiaris, 72 h, read-out: mean IC50
tubulin = format: cell-based, dog
[3] = set-up: species or system horses (Thoroughbreds); settings: in vivo
[4] = dog, in vivo; cited from earlier work
[5] = format: in vivo, dog; settings: intravenous bolus 2 mg/kg; 2 dogs
[6] = format: in vivo, cat; settings: cats with CHF that received pimobendan; −561 in cats that did not; P = 0.045

## Cc1nc(Nc2ncc(C(=O)Nc3c(C)cccc3Cl)s2)cc(N2CCN(CCO)CC2)n1 [Dasatinib, dasatinib]
VEGF
  VEGF production: suppressed VEGF production
[1]
  cell viability: lowered cell viability
Bcl11b
  activation (phosphorylation) of Bcl11b: inhibited activation of Bcl11b

## COC(=O)Nc1nc2ccc(Sc3ccccc3)cc2[nH]1 [FBZ, fenbendazole]
[2]
  IC50: 550 nM
tubulin
  tubulin depolymerization versus untreated control: increased depolymerization of tubulin

## COc1ccc2[nH]c([S+]([O-])Cc3ncc(C)c(OC)c3C)nc2c1 (stereo not drawn) [OME, omeprazole]
[3]
  gastric ulcer scores: significantly decreased

## N.N.[Cl][Pt][Cl] [cisplatin]
[4]
  reported MST for invasive thyroid carcinoma: 98 days

## CCN(CC)CC(=O)Nc1c(C)cccc1C [lidocaine]
[5]
  response of polymorphic ventricular tachycardia: no improvement was found

## COc1ccc(-c2nc3ccc(C4=NNC(=O)CC4C)cc3[nH]2)cc1 (stereo not drawn) [pimobendan]
[6]
  change in NT‐proBNP concentration from admission to discharge (median): -821 pmol/L
